This passage reports inhibition, disaggregation level and LD50 results from patent EP0101786A1, “Use of a benzoisothiazoline derivative for the manufacture of a medicament against thrombosis and platelet aggregation” (GREEN CROSS CORPORATION, priority 1982, dated 1984).

Data set [1] deals with platelet aggregation initiated by promoter ADP (platelet-rich plasma). The experiment in a line: Inhibition of ADP-induced platelet aggregation (aggregometer, nephelometry). The format is cell-based. Particulars: 2 min; for inhibition at 3 µg/mL: final conc. 3.0 γ/ml; for inhibition at 10 µg/mL: final conc. 10 γ/ml (10.0 γ/ml). The method, then: The inhibitory activity of BIT (1) compounds against platelet aggregation initiated by promoter ADP was determined for various amounts of the BIT (1) compounds. […] Silicon-coated cuvettes on the Aggregometer were filled with 0.8 ml of diluted platelet-rich plasma (containing 300,000 to 400,000 platelets per cmm) and 0.1 ml of solutions of the BIT (1) compounds listed in Table 1 having different concentration (0.3 y/ml, 1.0 γ/ml and 3.0 y/ml as dissolved in 100% alcohol), as well as adenosine (20 y/ml and 100 y/ml) and aspirin (500 y/ml) were added. Following 2-minute incubation, ADP was added to give a final concentration of 10^-5 M. The final volume of each sample was 1 ml. The process of platelet aggregation was monitored with the recorder pen which traced aggregation curves.
The percent inhibition of aggregation was calculated by the following formula: [formula] wherein M represents light transmittance for maximum aggregation in 100 % ethanol (Control);
D represents light transmittance for maximum aggregation in the specific sample.

The subject of data set [2] is platelets (platelet-rich plasma, ADP-aggregated). The data set is described as follows: Acceleration of platelet disaggregation after ADP-induced maximum aggregation. The format is cell-based. The following applies: 5 minutes after addition, control about 12 %. On the procedure: ADP was added to platelet-rich plasma as used in (1) above, and when maximum aggregation was reached, BIT (1) compound (R=n-C3H7, X-Cl) was added to check its ability to accelerate the disaggregation of platelets. In this experiment, the procedure of experiment (1) was repeated except that the BIT (1) was added after the aggregation of platelets occurred. To give final concentrations of 1.0 γ/ml, 3.0 y/ml and 6.0 y/ml as dissolved in 100 % ethanol, 0.1 ml of solutions containing 10 γ/ml, 30 γ/ml and 60 y/ml of BIT (1) were added after maximum platelet aggregation took place. As a control, 100 % ethanol was added instead of the BIT (1). The degree of disaggregation was determined by measuring the absorbance of the test samples 5 minuts after the addition of the BIT (1) as against the absorbance for maximum aggregation in that sample.

The nature of data set [3]: Acute toxicity test, oral, Litchfield-Wilcoxon method. Particulars: mouse, in vivo, male ddy mice, suspension in distilled water with 0.5 % carboxymethyl cellulose. On the procedure:
A group of 10 male ddy mice each weighing […] were subject to an acute toxicity test with BIT (1) (R=n-C3H7, X-Cl) which was administered to the mice orally as suspensions in distilled water for injection that contained 0.5 % of carboxymethyl cellulose.

Where [4] appears, read: ADP 10^-5 M, 2-minute incubation.

Compound `CCCn1sc2cc(Cl)ccc2c1=O` [BIT (R=n-C3H7) (X=Cl), 6-chloro-2-n-propyl-1,2-benzoisothiazolin-3-one] came in with an inhibition at 0.3 µg/mL in data set [1] (final conc. 0.3 γ/ml, ADP 10^-5 M, 2-minute incubation) of 18%. In addition, testing at 1 µg/mL in data set [1] (final conc. 1.0 γ/ml, ADP 10^-5 M, 2-minute incubation) gave an inhibition of 43%. In data set [1] (setting [4]), this compound returned an inhibition at 3 µg/mL of 100%. Moreover, the disaggregation level in data set [2] (final concentration 1.0 γ/ml) is 25%; in data set [2] (final concentration 3.0 γ/ml), 47%; in data set [2] (final concentration 6.0 γ/ml), 64%. The LD50 in data set [3] was 6500 mg/kg.

For `CC(=O)Oc1ccccc1C(=O)O` [Aspirin, reference compound], the inhibition at 50 µg/mL in data set [1] (read-out: Inhibition of platelet aggregation) was 0%.

In data set [1] (setting [4]), `O=c1[nH]sc2cc(Cl)ccc12` [BIT (R=H) (X=Cl)] had an inhibition at 10 µg/mL of 100%.

Regarding `CCCCCCCCCCn1sc2cc(Cl)ccc2c1=O` [BIT (R=n-C10H21) (X=Cl), 6-chloro-2-n-decyl-1,2-benzoiso-thiazolin-3-one], the inhibition at 3 µg/mL in data set [1] (setting [4]) came to 100%.

In data set [1] (final conc. 2 γ/ml, ADP 10^-5 M, 2-minute incubation), `Nc1ncnc2c1ncn2[C@@H]1O[C@H](CO)[C@@H](O)[C@H]1O` [Adenosine, reference compound] displayed an inhibition at 2 µg/mL of 47%. Further, in data set [1] (setting [4]), the inhibition at 10 µg/mL is 62%.

For the compound `CCCCCCn1sc2cc(Cl)ccc2c1=O` [BIT (R=n-C6H13) (X=Cl), 6-chloro-2-n-hexyl-1,2-benzoisothiazolin-3-one], in data set [1] (setting [4]), the inhibition at 3 µg/mL came to 100%.

Broadly, the inhibition is how much of the control response was suppressed. By LD50 is commonly meant the dose expected to kill half of the subjects tested. The low end stands for greater toxicity, the high end for lower toxicity.
